Reference: ChEMBL document CHEMBL4002541 (Medchemcomm, 2014)
The source made the active and inactive calls. The rule behind the calls is not given here.

Experiments:
[1] = molecular target: T1, Melatonin receptor type 1A (Homo sapiens, UniProt P48039); assay: Displacement of 2-[125I]Iodomelatonin from human MT1 receptor expressed in CHO cell membranes after 120 mins
[2] = molecular target: T1, Melatonin receptor type 1A; assay: Agonist activity at human MT1 receptor expressed in CHO cells after 1 hr by [35S]GTPgammaS binding assay; assay type: functional, cell-based
Homo sapiens = organism: Homo sapiens; assay: Selectivity ratio of Ki for human MT1 receptor to Ki for human MT2 receptor
[3] = molecular target: T2, Melatonin receptor type 1B (Homo sapiens, UniProt P49286); assay: Agonist activity at human MT2 receptor expressed in CHO cells after 1 hr by [35S]GTPgammaS binding assay; assay type: functional, cell-based
T2 sequence (P49286 whole entry): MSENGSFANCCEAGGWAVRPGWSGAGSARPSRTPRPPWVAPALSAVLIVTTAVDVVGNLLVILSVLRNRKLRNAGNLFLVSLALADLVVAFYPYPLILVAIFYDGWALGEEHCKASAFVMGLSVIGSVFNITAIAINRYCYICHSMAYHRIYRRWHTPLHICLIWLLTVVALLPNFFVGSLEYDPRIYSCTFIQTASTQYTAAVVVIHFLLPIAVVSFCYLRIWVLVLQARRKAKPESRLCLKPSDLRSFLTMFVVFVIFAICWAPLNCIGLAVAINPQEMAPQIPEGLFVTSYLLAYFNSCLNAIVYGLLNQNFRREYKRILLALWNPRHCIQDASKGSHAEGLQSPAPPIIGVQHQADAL

Mus musculus [4] = assay: Antidepressant activity in OF1 mouse assessed as reduction in immobility time at 0.1 to 10 mg/kg administered 40 mins prior to testing measured for 6 mins by tail suspension test; assay type: functional, organism-based
[5] = molecular target: T2, Melatonin receptor type 1B; assay: Displacement of 2-[125I]Iodomelatonin from human MT2 receptor expressed in CHO cell membranes after 120 mins
[6] = molecular target: T3, 5-hydroxytryptamine receptor 2C (Homo sapiens, UniProt P28335); assay: Displacement of [3H]mesulergine from human 5HT2C (VSV) receptor expressed in CHO cell membranes after 60 mins by scintillation counting method
T3 sequence (P28335 whole entry): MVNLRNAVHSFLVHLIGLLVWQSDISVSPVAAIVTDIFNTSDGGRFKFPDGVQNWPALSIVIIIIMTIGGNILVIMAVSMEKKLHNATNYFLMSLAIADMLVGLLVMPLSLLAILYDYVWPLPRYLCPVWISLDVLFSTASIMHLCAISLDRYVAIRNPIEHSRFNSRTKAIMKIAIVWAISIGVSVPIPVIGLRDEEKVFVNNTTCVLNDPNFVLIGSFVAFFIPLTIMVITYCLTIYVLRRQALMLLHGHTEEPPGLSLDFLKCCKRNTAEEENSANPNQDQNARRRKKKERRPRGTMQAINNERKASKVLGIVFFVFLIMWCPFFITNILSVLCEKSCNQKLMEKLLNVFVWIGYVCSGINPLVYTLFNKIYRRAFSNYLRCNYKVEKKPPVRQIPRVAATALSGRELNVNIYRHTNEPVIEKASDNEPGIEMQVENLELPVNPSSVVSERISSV

Mus musculus [7] = assay: Antidepressant activity in OF1 mouse assessed as reduction in immobility time at 0.1 mg/kg administered 40 mins prior to testing measured for 6 mins by tail suspension test; assay type: functional, organism-based
[8] = molecular target: T4, 5-hydroxytryptamine receptor 2C (Homo sapiens) (UniProt P28335); assay: Antagonist activity at human 5HT2C (VSV) receptor expressed in CHO cells assessed as inhibition of 5-HT-induced [3H]inositol phosphate production preincubated for 20 mins followed by 5-HT addition relative to 5-HT; assay type: functional, cell-based
T4 sequence (whole entry): T3 sequence (P28335 whole entry)

Mus musculus [9] = assay: Antidepressant activity in OF1 mouse assessed as reduction in immobility time at 1 to 10 mg/kg administered 40 mins prior to testing measured for 6 mins by tail suspension test; assay type: functional, organism-based
[10] = molecular target: T2, Melatonin receptor type 1B; assay: (§1) Partial agonist activity at human MT2 receptor expressed in CHO cells after 1 hr by [35S]GTPgammaS binding assay; assay type: functional, cell-based
[11] = molecular target: T5, Melatonin receptor type 1B (Homo sapiens) (UniProt P49286); assay: as §1; assay type: functional, cell-based
T5 sequence (whole entry): T2 sequence (P49286 whole entry)

[12] = molecular target: T1, Melatonin receptor type 1A; assay: Partial agonist activity at human MT1 receptor expressed in CHO cells after 1 hr by [35S]GTPgammaS binding assay; assay type: functional, cell-based
[13] = molecular target: T4, 5-hydroxytryptamine receptor 2C (Homo sapiens); assay: Antagonist activity at human 5HT2C (VSV) receptor expressed in CHO cells assessed as inhibition of 5-HT-induced [3H]inositol phosphate production preincubated for 20 mins followed by 5-HT addition; assay type: functional, cell-based
Mus musculus [14] = assay: Antidepressant activity in OF1 mouse assessed as reduction in immobility time at 64 mg/kg administered 40 mins prior to testing measured for 6 mins by tail suspension test; assay type: functional, organism-based
[15] = molecular target: T2, Melatonin receptor type 1B; assay: Binding affinity to MT2 receptor (unknown origin)
[16] = molecular target: T1, Melatonin receptor type 1A; assay: Binding affinity to MT1 receptor (unknown origin)

T1 sequence (P48039 whole entry): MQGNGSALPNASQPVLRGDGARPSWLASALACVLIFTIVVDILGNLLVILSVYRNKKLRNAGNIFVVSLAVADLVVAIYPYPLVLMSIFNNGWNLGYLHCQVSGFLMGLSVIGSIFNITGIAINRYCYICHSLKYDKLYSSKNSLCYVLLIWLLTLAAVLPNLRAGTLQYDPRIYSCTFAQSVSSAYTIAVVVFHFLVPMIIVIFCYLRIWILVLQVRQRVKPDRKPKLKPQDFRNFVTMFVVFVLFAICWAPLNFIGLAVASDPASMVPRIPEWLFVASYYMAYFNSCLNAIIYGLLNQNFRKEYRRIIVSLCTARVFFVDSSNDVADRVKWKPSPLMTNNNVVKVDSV

SMILES	Ki [1] [nM]	EC50 [2] [nM]	EC50 [3] [nM]	Ki [5] [nM]	Ki [6] [nM]	other results
CCC(=O)NC[C@@H](CO)c1cccc2ccc(OC)cc12	182	389	7.41	5.5	> 10000	Ratio Ki (Homo sapiens): 53; Activity (Mus musculus [4]): inactive
COc1ccc2cccc(C(CO)CNC(C)=O)c2c1 (stereo not drawn)	11	72.4	145	13.8	229	
COc1ccc2cccc([C@H](CO)CNC(=O)CF)c2c1	347	1050	25.1	52.5	> 10000	Ratio Ki (Homo sapiens): 7; Activity (Mus musculus [4]): inactive
CCC(=O)NC[C@H](CO)c1cccc2ccc(OC)cc12	3.39			0.316	417	Activity (Mus musculus [7]): inactive; Imax [8]: 79%; Activity (Mus musculus [9]): Dose-dependent effect; EC50 [10]: 1.26 nM; Emax [11]: 107%; EC50 [12]: 19.5 nM; Emax [12]: 59%; pKb [13]: 6
COc1ccc2cccc(C(CO)CNC(=O)C(F)F)c2c1 (stereo not drawn)	1.91	10.2	0.372	0.347	692	
COc1ccc2cccc([C@@H](CO)CNC(=O)CF)c2c1	5.89			0.977	186	Imax [8]: 97%; EC50 [10]: 0.794 nM; Emax [11]: 99%; EC50 [12]: 79.4 nM; Emax [12]: 62%; Activity (Mus musculus [4]): Active; pKb [13]: 6.3
CCC(=O)NCC(CO)c1cccc2ccc(OC)cc12 (racemic)	1.35	49	2.75	2.95	708	
COc1ccc2cccc(CCNC(C)=O)c2c1						Imax [8]: 98%
CN(C)CCCN1c2ccccc2CCc2ccccc21						Activity (Mus musculus [14]): Active
COc1ccc2cccc(C(CO)CNC(=O)CF)c2c1 (racemic)		25.1	0.631	0.537	166	
COc1cc2c([C@@H](C)CNC(C)=O)c[nH]c2cc1Cl						Ki [15]: 0.0398 nM; Ki [16]: 0.0794 nM
